Earlier results in US20050187170A1, “Enhancing the efficiency of RNA polymerase inhibitors by using inosine monophosphate dehydrogenase inhibitors” (BIOCRYST PHARMACEUTICALS, INC., priority 2003, published 2005).

Key:
[1] = target: human IMPDH type I (Homo sapiens, UniProt P20839); details: read-out: Ki, IMPDH type I; type I expressed in normal cells; Carr, et al.
[2] = system: HIV; details: human peripheral blood CD4+ lymphocytes and macrophages, established human cell lines

Chain of human IMPDH type I (P20839 whole entry): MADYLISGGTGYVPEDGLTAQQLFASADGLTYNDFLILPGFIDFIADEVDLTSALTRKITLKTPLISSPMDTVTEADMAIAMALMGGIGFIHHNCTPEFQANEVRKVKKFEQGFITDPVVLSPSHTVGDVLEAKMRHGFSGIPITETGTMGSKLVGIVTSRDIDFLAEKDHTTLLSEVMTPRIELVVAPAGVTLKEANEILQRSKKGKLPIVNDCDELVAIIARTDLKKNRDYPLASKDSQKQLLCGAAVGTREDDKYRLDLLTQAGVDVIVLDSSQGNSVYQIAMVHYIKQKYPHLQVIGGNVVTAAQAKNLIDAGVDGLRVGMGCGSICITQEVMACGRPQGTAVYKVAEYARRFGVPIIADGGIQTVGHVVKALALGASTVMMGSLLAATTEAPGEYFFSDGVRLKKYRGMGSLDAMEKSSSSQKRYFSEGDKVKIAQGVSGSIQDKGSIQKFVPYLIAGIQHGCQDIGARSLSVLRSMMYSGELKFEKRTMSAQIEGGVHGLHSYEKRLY

SMILES: COc1c(C)c2c(c(O)c1C/C=C(\C)CCC(=O)O)C(=O)OC2 [MPA, Mycophenolic acid]
- Ki [1]: 33 to 37 nM
- anti-HIV activity in vitro [2]: strong anti-HIV activity
